The results in this text go back to patent publication US20100184955A1, “ANTICANCER PRODRUG SENSITIVE TO TARGET PROTEASE” (priority 2009, published 2010).

The subject of this series is HeLa cells. In words: MTT cytotoxicity test in HeLa cells. Type of series: cell-based. The conditions noted are these: different concentrations, FIG. 4. The method, then: Each of Dox and albumin-peptide-Dox at different concentrations was added to HeLa cells and then a 3-(4,5-dimethylthiazol-2-yl)-2,5-diphenyltetrazolium bromide (MTT) assay was performed to evaluate cytotoxicity.
For orientation: Formazan colour is commonly taken as a measure of viable cells.

`COc1cccc2c1C(=O)c1c(O)c3c(c(O)c1C2=O)C[C@@](O)(C(=O)CO)C[C@@H]3O[C@H]1C[C@H](N)[C@H](O)[C@H](C)O1` [Dox, doxorubicin]: the “cytotoxicity (MTT assay)” value is listed as “the level of cytotoxicity was increased in proportion to the concentration”.
